test system: HT-29; test: Growth inhibition of human HT-29 cells assessed as cell growth at 10 uM incubated for 48 hrs by sulforhodamine B assay relative to control; type: functional; conditions: HT-29, 48 h, read-out: Activity

Row | Structure (SMILES) | growth at 10 µM
1 | COc1cc2cc(Oc3ccc(NC(=O)Nc4ccc(C)cc4)cc3)c(C)nc2cc1OC | 115%

test system: IGROV-1; test: Growth inhibition of human IGROV1 cells assessed as cell growth at 10 uM incubated for 48 hrs by sulforhodamine B assay relative to control; type: functional; conditions: IGROV-1, 48 h, read-out: Activity

Row | Structure (SMILES) | growth at 10 µM
2 | COc1cc2cc(Oc3ccc(NC(=O)Nc4ccc(C)cc4)cc3)c(C)nc2cc1OC | 101%

test system: SF-268; test: Growth inhibition of human SF268 cells assessed as cell growth at 10 uM incubated for 48 hrs by sulforhodamine B assay relative to control; type: functional; conditions: SF-268, 48 h, read-out: Activity

Row | Structure (SMILES) | growth at 10 µM
3 | COc1cc2cc(Oc3ccc(NC(=O)Nc4ccc(C)cc4)cc3)c(C)nc2cc1OC | 80.2%

test system: NCI-H23; test: Growth inhibition of human NCI-H23 cells assessed as cell growth at 10 uM incubated for 48 hrs by sulforhodamine B assay relative to control; type: functional; conditions: NCI-H23, 48 h, read-out: Activity

Row | Structure (SMILES) | growth at 10 µM
4 | COc1cc2cc(Oc3ccc(NC(=O)Nc4ccc(C)cc4)cc3)c(C)nc2cc1OC | 95.5%

test system: LOX IMVI; test: Growth inhibition of human LOXIMVI cells assessed as cell growth at 10 uM incubated for 48 hrs by sulforhodamine B assay relative to control; type: functional; conditions: read-out: Activity

Row | Structure (SMILES) | growth at 10 µM
5 | COc1cc2cc(Oc3ccc(NC(=O)Nc4ccc(C)cc4)cc3)c(C)nc2cc1OC | 102%

test system: NCI-H460; test: Growth inhibition of human NCI-H460 cells assessed as cell growth at 10 uM incubated for 48 hrs by sulforhodamine B assay relative to control; type: functional; conditions: NCI-H460, 48 h, read-out: Activity

Row | Structure (SMILES) | growth at 10 µM
6 | COc1cc2cc(Oc3ccc(NC(=O)Nc4ccc(C)cc4)cc3)c(C)nc2cc1OC | 108%

test system: Malme-3M; test: Growth inhibition of human MALME-3M cells assessed as cell growth at 10 uM incubated for 48 hrs by sulforhodamine B assay relative to control; type: functional; conditions: read-out: Activity

Row | Structure (SMILES) | growth at 10 µM
7 | COc1cc2cc(Oc3ccc(NC(=O)Nc4ccc(C)cc4)cc3)c(C)nc2cc1OC | 94.6%

test system: SF-295; test: Growth inhibition of human SF295 cells assessed as cell growth at 10 uM incubated for 48 hrs by sulforhodamine B assay relative to control; type: functional; conditions: SF-295, 48 h, read-out: Activity

Row | Structure (SMILES) | growth at 10 µM
8 | COc1cc2cc(Oc3ccc(NC(=O)Nc4ccc(C)cc4)cc3)c(C)nc2cc1OC | 107%

test system: HCT-15; test: Growth inhibition of human HCT15 cells assessed as cell growth at 10 uM incubated for 48 hrs by sulforhodamine B assay relative to control; type: functional; conditions: HCT-15, 48 h, read-out: Activity

Row | Structure (SMILES) | growth at 10 µM
9 | COc1cc2cc(Oc3ccc(NC(=O)Nc4ccc(C)cc4)cc3)c(C)nc2cc1OC | 103%

test system: SF-539; test: Growth inhibition of human SF539 cells assessed as cell growth at 10 uM incubated for 48 hrs by sulforhodamine B assay relative to control; type: functional; conditions: SF-539, 48 h, read-out: Activity

Row | Structure (SMILES) | growth at 10 µM
10 | COc1cc2cc(Oc3ccc(NC(=O)Nc4ccc(C)cc4)cc3)c(C)nc2cc1OC | 108%

test system: A498; test: Growth inhibition of human A498 cells assessed as cell growth at 10 uM incubated for 48 hrs by sulforhodamine B assay relative to control; type: functional; conditions: A498, 48 h, read-out: Activity

Row | Structure (SMILES) | growth at 10 µM
11 | COc1cc2cc(Oc3ccc(NC(=O)Nc4ccc(C)cc4)cc3)c(C)nc2cc1OC | 116%

test system: U-251; test: Growth inhibition of human U251 cells assessed as cell growth at 10 uM incubated for 48 hrs by sulforhodamine B assay relative to control; type: functional; conditions: U-251, 48 h, read-out: Activity

Row | Structure (SMILES) | growth at 10 µM
12 | COc1cc2cc(Oc3ccc(NC(=O)Nc4ccc(C)cc4)cc3)c(C)nc2cc1OC | 99.9%

test system: MDA-MB-468; test: Growth inhibition of human MDA-MB-468 cells assessed as cell growth at 10 uM incubated for 48 hrs by sulforhodamine B assay relative to control; type: functional; conditions: MDA-MB-468, 48 h, read-out: Activity

Row | Structure (SMILES) | growth at 10 µM
13 | COc1cc2cc(Oc3ccc(NC(=O)Nc4ccc(C)cc4)cc3)c(C)nc2cc1OC | 97.1%

test system: K562; test: Growth inhibition of human K562 cells assessed as cell growth at 10 uM incubated for 48 hrs by sulforhodamine B assay relative to control; type: functional; conditions: K562, 48 h, read-out: Activity

Row | Structure (SMILES) | growth at 10 µM
14 | COc1cc2cc(Oc3ccc(NC(=O)Nc4ccc(C)cc4)cc3)c(C)nc2cc1OC | 90.8%

test system: MCF7; test: Growth inhibition of human MCF7 cells assessed as cell growth at 10 uM incubated for 48 hrs by sulforhodamine B assay relative to control; type: functional; conditions: MCF7, 48 h, read-out: Activity

Row | Structure (SMILES) | growth at 10 µM
15 | COc1cc2cc(Oc3ccc(NC(=O)Nc4ccc(C)cc4)cc3)c(C)nc2cc1OC | 94.5%

test system: SK-MEL-2; test: Growth inhibition of human SK-MEL-2 cells assessed as cell growth at 10 uM incubated for 48 hrs by sulforhodamine B assay relative to control; type: functional; conditions: SK-MEL-2, 48 h, read-out: Activity

Row | Structure (SMILES) | growth at 10 µM
16 | COc1cc2cc(Oc3ccc(NC(=O)Nc4ccc(C)cc4)cc3)c(C)nc2cc1OC | 91.5%

test system: MDA-MB-435; test: Growth inhibition of human MDA-MB-435 cells assessed as cell growth at 10 uM incubated for 48 hrs by sulforhodamine B assay relative to control; type: functional; conditions: MDA-MB-435, 48 h, read-out: Activity

Row | Structure (SMILES) | growth at 10 µM
17 | COc1cc2cc(Oc3ccc(NC(=O)Nc4ccc(C)cc4)cc3)c(C)nc2cc1OC | 107%

test system: OVCAR-3; test: Growth inhibition of human OVCAR3 cells assessed as cell growth at 10 uM incubated for 48 hrs by sulforhodamine B assay relative to control; type: functional; conditions: OVCAR-3, 48 h, read-out: Activity

Row | Structure (SMILES) | growth at 10 µM
18 | COc1cc2cc(Oc3ccc(NC(=O)Nc4ccc(C)cc4)cc3)c(C)nc2cc1OC | 113%

test system: COLO 205; test: Growth inhibition of human COLO205 cells assessed as cell growth at 10 uM incubated for 48 hrs by sulforhodamine B assay relative to control; type: functional; conditions: COLO 205, 48 h, read-out: Activity

Row | Structure (SMILES) | growth at 10 µM
19 | COc1cc2cc(Oc3ccc(NC(=O)Nc4ccc(C)cc4)cc3)c(C)nc2cc1OC | 111%

test system: 786-0; test: Growth inhibition of human 786-0 cells assessed as cell growth at 10 uM incubated for 48 hrs by sulforhodamine B assay relative to control; type: functional; conditions: 786-0, 48 h, read-out: Activity

Row | Structure (SMILES) | growth at 10 µM
20 | COc1cc2cc(Oc3ccc(NC(=O)Nc4ccc(C)cc4)cc3)c(C)nc2cc1OC | 126%

test system: SK-MEL-5; test: Growth inhibition of human SK-MEL-5 cells assessed as cell growth at 10 uM incubated for 48 hrs by sulforhodamine B assay relative to control; type: functional; conditions: SK-MEL-5, 48 h, read-out: Activity

Row | Structure (SMILES) | growth at 10 µM
21 | COc1cc2cc(Oc3ccc(NC(=O)Nc4ccc(C)cc4)cc3)c(C)nc2cc1OC | 100%

test system: ACHN; test: Growth inhibition of human ACHN cells assessed as cell growth at 10 uM incubated for 48 hrs by sulforhodamine B assay relative to control; type: functional; conditions: read-out: Activity

Row | Structure (SMILES) | growth at 10 µM
22 | COc1cc2cc(Oc3ccc(NC(=O)Nc4ccc(C)cc4)cc3)c(C)nc2cc1OC | 103%

test system: CAKI-1; test: Growth inhibition of human Caki1 cells assessed as cell growth at 10 uM incubated for 48 hrs by sulforhodamine B assay relative to control; type: functional; conditions: CAKI-1, 48 h, read-out: Activity

Row | Structure (SMILES) | growth at 10 µM
23 | COc1cc2cc(Oc3ccc(NC(=O)Nc4ccc(C)cc4)cc3)c(C)nc2cc1OC | 98.2%

test system: T47D; test: Growth inhibition of human T47D cells assessed as cell growth at 10 uM incubated for 48 hrs by sulforhodamine B assay relative to control; type: functional; conditions: read-out: Activity

Row | Structure (SMILES) | growth at 10 µM
24 | COc1cc2cc(Oc3ccc(NC(=O)Nc4ccc(C)cc4)cc3)c(C)nc2cc1OC | 101%

test system: SNB-19; test: Growth inhibition of human SNB19 cells assessed as cell growth at 10 uM incubated for 48 hrs by sulforhodamine B assay relative to control; type: functional; conditions: SNB-19, 48 h, read-out: Activity

Row | Structure (SMILES) | growth at 10 µM
25 | COc1cc2cc(Oc3ccc(NC(=O)Nc4ccc(C)cc4)cc3)c(C)nc2cc1OC | 97.1%

test system: UO-31; test: Growth inhibition of human UO31 cells assessed as cell growth at 10 uM incubated for 48 hrs by sulforhodamine B assay relative to control; type: functional; conditions: UO-31, 48 h, read-out: Activity

Row | Structure (SMILES) | growth at 10 µM
26 | COc1cc2cc(Oc3ccc(NC(=O)Nc4ccc(C)cc4)cc3)c(C)nc2cc1OC | 89.2%

test system: NCI-H226; test: Growth inhibition of human NCI-H226 cells assessed as cell growth at 10 uM incubated for 48 hrs by sulforhodamine B assay relative to control; type: functional; conditions: NCI-H226, 48 h, read-out: Activity

Row | Structure (SMILES) | growth at 10 µM
27 | COc1cc2cc(Oc3ccc(NC(=O)Nc4ccc(C)cc4)cc3)c(C)nc2cc1OC | 102%

test system: OVCAR-5; test: Growth inhibition of human OVCAR5 cells assessed as cell growth at 10 uM incubated for 48 hrs by sulforhodamine B assay relative to control; type: functional; conditions: OVCAR-5, 48 h, read-out: Activity

Row | Structure (SMILES) | growth at 10 µM
28 | COc1cc2cc(Oc3ccc(NC(=O)Nc4ccc(C)cc4)cc3)c(C)nc2cc1OC | 110%

test system: A549; test: Growth inhibition of human A549/ATCC cells assessed as cell growth at 10 uM incubated for 48 hrs by sulforhodamine B assay relative to control; type: functional; conditions: A549, 48 h, read-out: Activity

Row | Structure (SMILES) | growth at 10 µM
29 | COc1cc2cc(Oc3ccc(NC(=O)Nc4ccc(C)cc4)cc3)c(C)nc2cc1OC | 102%

test system: HL-60(TB); test: Growth inhibition of human HL-60(TB) cells assessed as cell growth at 10 uM incubated for 48 hrs by sulforhodamine B assay relative to control; type: functional; conditions: HL-60, 48 h, read-out: Activity

Row | Structure (SMILES) | growth at 10 µM
30 | COc1cc2cc(Oc3ccc(NC(=O)Nc4ccc(C)cc4)cc3)c(C)nc2cc1OC | 93%

test system: UACC-62; test: Growth inhibition of human UACC62 cells assessed as cell growth at 10 uM incubated for 48 hrs by sulforhodamine B assay relative to control; type: functional; conditions: UACC-62, 48 h, read-out: Activity

Row | Structure (SMILES) | growth at 10 µM
31 | COc1cc2cc(Oc3ccc(NC(=O)Nc4ccc(C)cc4)cc3)c(C)nc2cc1OC | 99.3%

From ChEMBL document CHEMBL3994622, “Design and synthesis of new RAF kinase-inhibiting antiproliferative quinoline derivatives. Part 2: Diarylurea derivatives” (Eur J Med Chem, 2017)
